{
  "source": "paper PMC3606385",
  "about": "(PLoS ONE, 2013)",
  "key": {"mouse 11β-HSD2": {"tested_on": "mouse 11β-HSD2", "design": "method as in PMID 16103409", "conditions": "cited from earlier work"}, "Human 11β-HSD1 [1]": {"biological_target": "T1, Human 11β-HSD1 (Homo sapiens, UniProt P28845)", "T1 construct": "expressed in transfected cells; host or cells: CHOP cells (transient, FuGENE)", "T1 sequence (P28845 whole entry)": "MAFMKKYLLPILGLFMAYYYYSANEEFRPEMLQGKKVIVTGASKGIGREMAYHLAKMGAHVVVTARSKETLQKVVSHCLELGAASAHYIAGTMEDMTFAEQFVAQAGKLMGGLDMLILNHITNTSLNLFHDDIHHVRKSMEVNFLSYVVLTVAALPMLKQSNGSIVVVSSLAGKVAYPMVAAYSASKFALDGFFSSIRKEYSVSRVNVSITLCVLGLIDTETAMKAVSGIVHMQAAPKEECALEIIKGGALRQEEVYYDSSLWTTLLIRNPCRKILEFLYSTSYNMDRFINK", "conditions": "cited from earlier work"}, "mouse 11β-HSD1": {"tested_on": "mouse 11β-HSD1", "conditions": "cited from earlier work"}, "Human 11β-HSD2 [2]": {"biological_target": "T2, Human 11β-HSD2 (Homo sapiens, UniProt P80365)", "T2 construct": "The rat and human kidney microsomes were used for 11β-HSD2 sources; tissue Gentest (Woburn, MA); host or cells: human kidney microsomes", "T2 sequence (P80365 1-405)": "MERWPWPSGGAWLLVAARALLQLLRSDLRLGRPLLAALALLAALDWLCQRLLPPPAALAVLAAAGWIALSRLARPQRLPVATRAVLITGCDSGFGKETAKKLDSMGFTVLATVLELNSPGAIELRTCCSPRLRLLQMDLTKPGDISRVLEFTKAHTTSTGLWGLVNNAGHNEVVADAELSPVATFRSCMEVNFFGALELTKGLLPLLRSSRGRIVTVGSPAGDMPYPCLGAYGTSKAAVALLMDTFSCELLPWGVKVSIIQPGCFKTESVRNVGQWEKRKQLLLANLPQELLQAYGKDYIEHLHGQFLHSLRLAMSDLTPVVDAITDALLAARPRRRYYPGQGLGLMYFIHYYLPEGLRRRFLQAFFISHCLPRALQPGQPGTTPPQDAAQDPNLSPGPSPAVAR", "conditions": "cited from earlier work"}, "Human 11β-HSD1 [3]": {"biological_target": "T1, Human 11β-HSD1", "assay": "11β-HSD1 assay in intact CHOP cells transfected with human HSD11B1", "assay_type": "cell-based", "experimental": "An expression plasmid was constructed to express human 11β-HSD1 (HSD11B1) cDNA in pcDNA I expression vector from its original human HSD11B1 vector (pBluescriptSK+).[15]. The Escherichia coli transformants carrying an insert were selected by colony hybridization, and a clone with the insert in the correct orientation relative to the vector T7 promoter was identified by restriction mapping. All transfections were carried out on 80% confluent cultures in 12-well plates. Aliquots of 1 µg HSD11B1 pcDNA I were transfected into mammalian CHOP cells with the FuGENE Transfection Reagent (Roche) according to manufacturer's protocol. Cells were allowed to grow for 24 hours in media containing 10% fetal bovine serum. Then media were removed and cells were harvested for 11β-HSD1 activity assay.\n(§1) 11β-HSD1 reductase activity was performed in intact cells using endogenous cofactor NADPH as described previously. […] 25×10^3 cells were added to each tube to initiate the reaction and the reaction mixture was incubated for up to 2 hrs, during which the reaction is within the linear range. At the end of reaction, the reaction was stopped by adding 2 ml ice-cold ether. The steroids were extracted, and the organic layer was dried under nitrogen. The steroids were separated chromatographically on thin layer plates in chloroform and methanol (90∶10, v/v), and the radioactivity was measured using a scanning radiometer (System AR2000, Bioscan Inc., Washington, DC) as described previously. The percentage conversion of 11DHC to CORT or cortisone to cortisol was calculated by dividing the radioactive counts identified as 11-OH-steroids by the total counts.\n(§2) The IC50 was determined by adding different concentrations of each compound in the 11β-HSD1 or 11β-HSD2 reaction as described. The mode of inhibition was assayed by adding various concentrations of steroid substrates in the presence of an inhibitor as described."}, "Rat 11β-HSD1": {"biological_target": "T3, Rat 11β-HSD1 (Rattus norvegicus, UniProt P16232)", "T3 construct": "endogenous in cells; host or cells: primary adult Sprague-Dawley rat Leydig cells", "T3 sequence (P16232 whole entry)": "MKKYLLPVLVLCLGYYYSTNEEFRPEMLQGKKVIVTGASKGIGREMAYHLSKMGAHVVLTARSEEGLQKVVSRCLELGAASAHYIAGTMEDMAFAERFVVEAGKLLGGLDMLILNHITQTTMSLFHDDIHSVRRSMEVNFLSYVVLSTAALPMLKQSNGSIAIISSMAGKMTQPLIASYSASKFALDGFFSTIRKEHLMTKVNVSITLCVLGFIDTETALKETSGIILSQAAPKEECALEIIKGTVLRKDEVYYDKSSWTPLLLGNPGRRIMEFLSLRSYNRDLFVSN", "assay": "11β-HSD1 assay in intact rat Leydig cells", "assay_type": "cell-based", "conditions": "intact rat Leydig cells", "experimental": "Rat Leydig cells contain the highest 11β-HSD1 activity in all cell types of rat tissues, and were used for rat 11β-HSD1 enzyme sources. Purified rat Leydig cells were obtained from 90-day-old Sprague-Dawley rats by collagenase digestion of the testes followed by Percoll density centrifugation of the cell suspension, according to the previously described method. […] The purity of cell fractions was evaluated by histochemical staining for 3β-hydroxysteroid dehydrogenase activity with […] etiocholanolone as the steroid substrate.\nas §1, §2"}, "[4]": {"biological_target": "T4, rat liver microsomal 11β-HSD1 (Rattus norvegicus, UniProt P16232)", "T4 construct": "Rat liver, testis and kidney microsomes were prepared as described previously; from tissue; host or cells: rat liver microsomes", "T4 sequence (P16232 whole entry)": "as above", "assay": "Mode of inhibition (Lineweaver-Burk), rat liver microsomal 11β-HSD1", "assay_type": "biochemical", "conditions": "Lineweaver-Burk plot, substrate 11DHC", "experimental": "(§3) The rat testis and liver or human liver microsomes were used for 11β-HSD1 assay. 11β-HSD1 activity was performed in the microsome according to a previously described method. In brief, the assay tubes contained 25 nM substrate 11DHC (for rat) or cortisone (for human), spiked with 30,000 cpm their respective ^3H-11keto-steroid, 0.2 mM NADPH and 5 mM glucose-6-phosphaare in the PBS buffer. 2 µg microsomes were added to each tube to initiate the reaction and the reaction mixture was incubated for up to 2 hrs, during which the reaction is within the linear range. The rest procedure was similar to 11β-HSD1 assay in intact cells.\nas §2\n(§4) Enzyme data were subjected to nonlinear analysis by GraphPad (Version 5, GraphPad Software Inc., San Diego, CA) for IC50. Lineweaver-Burk plot was used for the mode of inhibition. Data were subjected to analysis by one-way ANOVA followed by Tukey's multiple comparisons testing to identify significant differences between groups when three were calculated. Differences were regarded as significant at P<0.05."}, "human liver 11β-HSD1": {"biological_target": "T5, human liver 11β-HSD1 (Homo sapiens, UniProt P28845)", "T5 construct": "tissue Gentest (Woburn, MA); host or cells: human liver microsomes", "T5 sequence (P28845 whole entry)": "as the sequence (P28845 whole entry) above", "assay": "Mode of inhibition, human liver 11β-HSD1", "assay_type": "biochemical", "conditions": "data not shown", "experimental": "as §3, §2, §4"}, "Rat 11β-HSD2": {"biological_target": "T6, Rat 11β-HSD2 (Rattus norvegicus, UniProt P50233)", "T6 construct": "from tissue; host or cells: rat kidney microsomes", "T6 sequence (P50233 1-400)": "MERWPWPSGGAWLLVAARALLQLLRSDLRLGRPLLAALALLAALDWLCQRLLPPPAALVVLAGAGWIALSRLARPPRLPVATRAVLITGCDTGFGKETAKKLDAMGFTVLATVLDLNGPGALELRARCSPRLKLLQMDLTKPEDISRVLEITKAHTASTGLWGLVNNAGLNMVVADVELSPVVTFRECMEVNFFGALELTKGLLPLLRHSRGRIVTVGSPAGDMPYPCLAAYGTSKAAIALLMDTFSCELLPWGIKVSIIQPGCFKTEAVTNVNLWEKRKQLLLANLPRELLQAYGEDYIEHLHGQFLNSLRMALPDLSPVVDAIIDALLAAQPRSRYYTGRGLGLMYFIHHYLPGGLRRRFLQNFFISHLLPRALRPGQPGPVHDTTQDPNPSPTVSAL", "assay": "11β-HSD2 assay in rat kidney microsomes", "assay_type": "biochemical", "experimental": "Rats were euthanized by CO2, and livers, testes and kidneys were collected. Rat liver, testis and kidney microsomes were prepared as described previously. In brief, rat liver and kidney were homogenized in […] PBS buffer containing 0.25 M sucrose, and nuclei and large cell debris were removed by centrifugation at 1500× g for 10 min. The post-nuclear supernatants were centrifuged twice at 105,000×g, the resultant microsomal pellets were resuspended. Protein contents were measured by Bio-Rad Dye Reagent Concentrate (Cat.#500-0006). Microsomes were used for measurement of 11β-HSD1 and 11β-HSD2 activities.\nThe rat and human kidney microsomes were used for 11β-HSD2 sources. 11β-HSD2 activity was performed in the microsome according to a previously described method. […] 8 (rat) or 20 (human) µg kidney microsomes were added to each tube to initiate the reaction and the reaction mixture was incubated for up to 3 hrs, during which the reaction is within the linear range. The rest procedure was similar to 11β-HSD1 assay. The percentage conversion of CORT to 11DHC or cortisol to cortisone was calculated by dividing the radioactive counts identified as 11keto-steroids by the total counts.\nas §2"}, "Human 11β-HSD2 [5]": {"biological_target": "T2, Human 11β-HSD2", "assay": "11β-HSD2 assay in human kidney microsomes", "assay_type": "biochemical", "experimental": "The rat and human kidney microsomes were used for 11β-HSD2 sources. 11β-HSD2 activity was performed in the microsome according to a previously described method. In brief, the assay tubes contained 25 nM substrate CORT (for rat) or cortisol (for human), spiked with 30,000 cpm their respective ^3H-11β-hydroxyl steroid, 0.2 mM NAD+ and 0.1 mM DTT in the PBS buffer. 8 (rat) or 20 (human) µg kidney microsomes were added to each tube to initiate the reaction and the reaction mixture was incubated for up to 3 hrs, during which the reaction is within the linear range. The rest procedure was similar to 11β-HSD1 assay. The percentage conversion of CORT to 11DHC or cortisol to cortisone was calculated by dividing the radioactive counts identified as 11keto-steroids by the total counts.\nas §2"}, "hyperglycemic KKAy mouse": {"tested_on": "hyperglycemic KKAy mouse", "design": "method as in PMID 12190302", "conditions": "hyperglycemic KKAy mouse model; cited from earlier work"}},
  "note": "“Also recorded” adds a separate entry of the source. Where two headings read alike, the source gives them in different places.",
  "data": [
    {"compound": "C1CCc2nnc(C34CC5CC(CC(C5)C3)C4)n2CC1", "note": "[MK544]", "values": [
      {"measurement": "Selectivity over mouse 11β-HSD2", "setting": "mouse 11β-HSD2", "result": "> 100", "unit": "fold"},
      {"measurement": "IC50", "setting": "Human 11β-HSD1 [1]", "result": 0.0078, "unit": "µM"},
      {"measurement": "IC50", "setting": "mouse 11β-HSD1", "result": 0.098, "unit": "µM"},
      {"measurement": "Selectivity over human 11β-HSD2", "setting": "Human 11β-HSD2 [2]", "result": "> 450", "unit": "fold"}
    ]},
    {"compound": "O=C(/C=C/c1cccs1)/C=C/c1cccs1", "note": "[compound 6, (1E,4E)-1,5-bis(thiophen-2-yl) penta-1,4-dien-3-one]", "values": [
      {"measurement": "Human 11β-HSD1 Potency to Curcumin (fold)", "setting": "Human 11β-HSD1 [3]; CHOP cells transfected with human HSD11B1, relative to curcumin", "result": 24.68, "unit": "fold"},
      {"measurement": "IC50", "setting": "Human 11β-HSD1 [3]; CHOP cells transfected with human HSD11B1, read-out: Human 11β-HSD1 IC50 (nM) in CHOP cells", "result": 93, "unit": "nM"},
      {"measurement": "Rat 11β-HSD1 Potency to Curcumin (fold)", "setting": "Rat 11β-HSD1; relative to curcumin", "result": 31.44, "unit": "fold"},
      {"measurement": "IC50", "setting": "Rat 11β-HSD1; read-out: Rat 11β-HSD1 IC50 (nM) in Leydig cells", "result": 184, "unit": "nM"},
      {"measurement": "Mode of inhibition of rat 11β-HSD1", "setting": "[4]", "result": "competitive mode; also recorded: competitive inhibitor"},
      {"measurement": "Mode of inhibition of human 11β-HSD1", "setting": "human liver 11β-HSD1", "result": "same mode; also recorded: competitive inhibitor"},
      {"measurement": "Inhibition of rat 11β-HSD2 at 100 µM", "setting": "Rat 11β-HSD2; 100 µM", "result": "did not inhibit"},
      {"measurement": "IC50", "setting": "Rat 11β-HSD2; rat kidney microsomes", "result": "> 100000", "unit": "nM"},
      {"measurement": "Inhibition of human 11β-HSD2 at 100 µM", "setting": "Human 11β-HSD2 [5]; 100 µM", "result": "did not inhibit"},
      {"measurement": "IC50", "setting": "Human 11β-HSD2 [5]; human kidney microsomes, read-out: IC50 (nM) Human 11β-HSD2", "result": "> 100000", "unit": "nM"}
    ]},
    {"compound": "BVT2733", "values": [
      {"measurement": "Effect on blood glucose level", "setting": "hyperglycemic KKAy mouse", "result": "significantly lowered"},
      {"measurement": "IC50", "setting": "mouse 11β-HSD1; mouse enzyme", "result": 0.096, "unit": "µM"}
    ]}
  ]
}
